Test results reported in patent US20040170669A1, “Feed rations and methods of feeding growing ruminants” (priority 2002, published 2004).
Marks after values point to notes of the source that are not given here. One block for each compound: values may come before it.

What was measured:
[1] = 112-day feeding trial: growing beef cattle fed bermudagrass hay plus molasses-based supplements with corn gluten meal or Alimet; assay type: in vivo, Angus-Brahman crossbred cattle; conditions: for Liquid supplement refusal: molasses based supplement remaining from last feeding: one value per feeding date; for BCS change (0-112 days): body condition score; for Added gain: over control; for TDN consumed: total digestible nutrients
Experimental: An experiment was conducted to study the effect of increasing quantities of methionine from corn gluten meal, an 88% free acid solution of 2-hydroxy-4-(methylthio)butanoic acid sold under the trademark Alimet® (Novus International, Inc., St. Louis, Mo.), on the performance of growing beef cattle fed bermuda grass hay supplemented with molasses-based supplements. The experiment evaluated the effects of adding corn gluten meal or Alimet® to diets of hay supplemented with molasses-based supplements fed to growing beef cattle.
This experiment evaluated corn gluten meal and Alimet® fed to growing beef cattle at four levels to provide 0, 2, 4, and 6 gm/day of added bypass total sulfur amino acids (TSAA) assuming a 40% bypass of Alimet®. An […] treatment was formulated to provide 8 gm/day of added bypass TSAA from Alimet®. Both TSAA sources were provided in a liquid supplement slurry containing 82% fortified molasses (fortified with ‘12% crude protein, minerals, vitamins) and 18% ground corn or corn gluten meal. Corn gluten meal replaced corn in the supplement keeping the proportion of dry ingredients in the supplement similar across TSAA sources and levels. All supplements were offered to growing cattle to provide 3.28 lb/day of total digestible nutrients (TDN). Supplements were formulated to provide adequate nitrogen in the form of rumen degradable intake protein (DIP) with 0.18 lb DIP provided for each pound of TDN. Much of the DIP in supplements was provided by urea.
This experiment was conducted at the Santa Fe Beef Unit located near Gainesville. Thirty-two pens (4 head/pen) of Angus-Brahman crossbred cattle (9-12 months of age) were assigned randomly within sex and breed type. The calves averaged 610 lb and calves were in excellent body condition (BCS 5.8) at the start of the trial. Each pen was assigned two steers and two heifers. These 32 pens were randomly assigned to the 8 treatments. Each pen was a two-acre pasture and most grass was grazed off at the start of the trial but warm weather allowed some grass growth during February and March. Molasses slurries were fed on two days each week (equivalent amount for 3 or 4 days at each feeding) at the equivalent daily rate. Molasses slurries were hand mixed in each pen and fed in open troughs. Alimet® was pre-weighed in the laboratory and mixed in the supplement of the assigned pen at each feeding. Bermuda grass hay was offered ad libitum in hay rings outside (no shelter) and molasses slurries were limit fed during the 112-day trial (December thru April). Hay not consumed was collected, weighed, sampled (dry matter analyzed), and removed from the pens every 6 to 8 weeks during the trial. Water and a mineral-vitamin supplement were offered ad libitum.
Supplement consumption, hay consumption, full weight, shrunk weight (beginning and end only), height, body condition, and blood urea (2 calves/pen) were measured at 28-day intervals during the 112-day trial. Supplement ingredients were sampled twice monthly and each hay bale was weighed and sampled prior to feeding. Supplement ingredients were analyzed for dry matter, organic matter, crude protein, bypass protein, amino acids, and minerals. Hay samples were analyzed for dry matter, organic matter, crude protein, amino acids, in vitro organic matter digestibility, neutral detergent fiber, and minerals.

[2] = 0 to 6 month old calves, hay plus compound feed; cited from earlier work
[3] = 2 gm bypass TSAA/d (Alimet 5.7 g/d)
[4] = 4 gm bypass TSAA/d (Alimet 11.4 g/d)
[5] = 6 gm bypass TSAA/d (Alimet 17 g/d)
[6] = 8 gm bypass TSAA/d (Alimet 22.7 g/d)

Liquid supplement refusal: molasses based supplement remaining from last feeding ([1]; Alimet 5.7 g/d, pen 1): 25 pounds | Liquid supplement refusal: molasses based supplement remaining from last feeding ([1]; Alimet 11.4 g/d, pen 8): 35 pounds | Liquid supplement refusal: molasses based supplement remaining from last feeding ([1]; Alimet 17 g/d, pen 5): 15 pounds | Liquid supplement refusal: molasses based supplement remaining from last feeding ([1]; Alimet 22.7 g/d, pen 4, feeding date 2.19): 40 pounds | Liquid supplement refusal: molasses based supplement remaining from last feeding ([1]; Alimet 22.7 g/d, pen 4, feeding date 12.18): 20 pounds | Liquid supplement refusal: molasses based supplement remaining from last feeding ([1]; Alimet 22.7 g/d, pen 4, feeding date 12.22): 25 pounds | Liquid supplement refusal: molasses based supplement remaining from last feeding ([1]; Alimet 22.7 g/d, pen 4, feeding date 12.26): 30 pounds | Liquid supplement refusal: molasses based supplement remaining from last feeding ([1]; Alimet 22.7 g/d, pen 4, feeding date 12.29): 35 pounds | Liquid supplement refusal: molasses based supplement remaining from last feeding ([1]; Alimet 22.7 g/d, pen F, feeding date 1.22): 20 pounds | Liquid supplement refusal: molasses based supplement remaining from last feeding ([1]; Alimet 22.7 g/d, pen F, feeding date 3.01): 35 pounds
SMILES: CSCCC(O)C(=O)O (centres unmarked) [Alimet, 2-hydroxy-4-(methylthio)butanoic acid]
Daily gain, 0-28 days (full wt) [1, 3]: 1.58 lb/d | Daily gain, 0-112 days (full wt) [1, 3]: 1.61 lb/d | Daily gain, 1-113 days (shrunk wt) [1, 3]: 1.35^bc lb/d | Daily gain, 28-56 days (full wt) [1, 3]: 1.92 lb/d | Daily gain, 56-84 days (full wt) [1, 3]: 1.09 lb/d | Daily gain, 84-112 days (full wt) [1, 3]: 1.90 lb/d | Feed consumed, Hay [1, 3]: 11.23^b lb/d DM | Feed consumed, Supplement [1, 3]: 4.51^a lb/d DM | Feed consumed, Total [1, 3]: 15.74^b lb/d DM | Feed efficiency, Gain/TDN [1, 3]: .149^acd | Feed efficiency, Gain/feed DM [1, 3]: .087^c | Height change (0-112 days) [1, 3]: 2.73 in. | Daily gain, 0-28 days (full wt) [1, 4]: 1.88 lb/d | Daily gain, 0-112 days (full wt) [1, 4]: 1.53 lb/d | Daily gain, 1-113 days (shrunk wt) [1, 4]: 1.31^ab lb/d | Daily gain, 28-56 days (full wt) [1, 4]: 1.46 lb/d | Daily gain, 56-84 days (full wt) [1, 4]: .99 lb/d | Daily gain, 84-112 days (full wt) [1, 4]: 1.82 lb/d | Feed consumed, Hay [1, 4]: 10.49^b lb/d DM | Feed consumed, Supplement [1, 4]: 4.51^a lb/d DM | Feed consumed, Total [1, 4]: 14.99^b lb/d DM | Feed efficiency, Gain/TDN [1, 4]: .149^acd | Feed efficiency, Gain/feed DM [1, 4]: .088^c | Height change (0-112 days) [1, 4]: 2.45 in. | Daily gain, 0-28 days (full wt) [1, 5]: 1.77 lb/d | Daily gain, 0-112 days (full wt) [1, 5]: 1.69 lb/d | Daily gain, 1-113 days (shrunk wt) [1, 5]: 1.44^bc lb/d | Daily gain, 28-56 days (full wt) [1, 5]: 1.68 lb/d | Daily gain, 56-84 days (full wt) [1, 5]: 1.40 lb/d | Daily gain, 84-112 days (full wt) [1, 5]: 1.98 lb/d | Feed consumed, Hay [1, 5]: 11.04^b lb/d DM | Feed consumed, Supplement [1, 5]: 4.45^a lb/d DM | Feed consumed, Total [1, 5]: 15.49^b lb/d DM | Feed efficiency, Gain/TDN [1, 5]: .159^ad | Feed efficiency, Gain/feed DM [1, 5]: .094^a | Height change (0-112 days) [1, 5]: 2.80 in. | Daily gain, 0-28 days (full wt) [1, 6]: 1.24 lb/d | Daily gain, 0-112 days (full wt) [1, 6]: 1.52 lb/d | Daily gain, 1-113 days (shrunk wt) [1, 6]: 1.31^ab lb/d | Daily gain, 28-56 days (full wt) [1, 6]: 1.49 lb/d | Daily gain, 56-84 days (full wt) [1, 6]: .93 lb/d | Daily gain, 84-112 days (full wt) [1, 6]: 2.48 lb/d | Feed consumed, Hay [1, 6]: 10.49^b lb/d DM | Feed consumed, Supplement [1, 6]: 4.08^b lb/d DM | Feed consumed, Total [1, 6]: 14.57^ab lb/d DM | Feed efficiency, Gain/TDN [1, 6]: .154^d | Feed efficiency, Gain/feed DM [1, 6]: .091^a | Height change (0-112 days) [1, 6]: 2.79 in. | BCS change (0-112 days) [1, 3]: +.14 | BCS change (0-112 days) [1, 4]: +.09 | BCS change (0-112 days) [1, 5]: +.18 | BCS change (0-112 days) [1, 6]: +.08 | Added gain [1, 3]: .17 lb/d | Added gain [1, 4]: .13 lb/d | Added gain [1, 5]: .26 lb/d | Added gain [1, 6]: .13 lb/d | TDN consumed [1, 3]: 9.21^b lb/d | TDN consumed [1, 4]: 8.84^b lb/d | TDN consumed [1, 5]: 9.13^b lb/d | TDN consumed [1, 6]: 8.56^ab lb/d

SMILES: CSCCC(O)C(=O)[O-].CSCCC(O)C(=O)[O-].[Ca+2] (centres unmarked) [calcium salt of 2-hydroxy-4-(methylthio)butanoic acid]
Increase of average daily weight gain over control calves [2]: 8-10%
